The source of these data is article PMC2920594 (Journal of the American Chemical Society, 2010).

The assay has as its target FtsZ (Escherichia coli, UniProt P0A9A6). The assay is described as follows: STD NMR and STD NMR competition with GTPγS. Format: biochemical.

Converted amounts (≈) assume the structure as drawn.

Sequence of FtsZ (P0A9A6 whole entry): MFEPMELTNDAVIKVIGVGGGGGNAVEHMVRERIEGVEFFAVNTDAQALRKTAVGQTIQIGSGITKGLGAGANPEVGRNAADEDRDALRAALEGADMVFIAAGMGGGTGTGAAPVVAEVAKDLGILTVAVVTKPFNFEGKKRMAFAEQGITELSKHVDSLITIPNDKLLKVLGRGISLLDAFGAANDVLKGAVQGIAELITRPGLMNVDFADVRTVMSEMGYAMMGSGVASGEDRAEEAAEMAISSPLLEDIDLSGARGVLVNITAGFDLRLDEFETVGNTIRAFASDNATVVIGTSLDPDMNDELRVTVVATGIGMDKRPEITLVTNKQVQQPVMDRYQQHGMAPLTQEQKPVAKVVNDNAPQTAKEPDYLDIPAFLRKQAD

The compound `Oc1cc(O)c2c(c1)C/C(Cl)=C\Cc1cc(c(Cl)cc1O)Oc1c(O)cc(cc1O)C/C(Cl)=C\Cc1cc(c(Cl)cc1O)O2` [compound 1, chrysophaentin A] gave an IC50 of 6.7 ± 1.7 µg/mL (≈ 9.88 µM).
